Here are results for 11 compounds from patent publication EP0121972A2, “N-aryl-alpha-amino-carboxamides” (JANSSEN PHARMACEUTICA N.V., priority 1983, dated 1984).

The subject of the experiment is multifocal ventricular arrhythmia. The experiment in a line: Antiarrhythmic effect in dogs with ventricular arrhythmia after coronary artery ligation. Conditions: given intravenously; for minimal effective dose: Canis lupus familiaris, iv, lowest effective dose normalizing the cardial rhythm, about 16 hours after ligation of the anterior descendent branch of the left coronary artery, under neuroleptanalgesia, read-out: Antiarrhythmic effects in dogs LED in mg/kg body weight; for Antiarrhythmic effects in dogs duration: duration of action at the lowest effective dose, coronary-ligated dogs. It counts as in vivo. Here is the method: The compounds of formula (I) and their pharmaceutically acceptable acid addition salts and possible stereochemically isomeric forms thereof show excellent antiarrhythmic properties and as such they are useful in the normalization of irregular cardial rhythms. The antiarrhythmic effect of the compounds of this invention is clearly illustrated in the following experiment in dogs. The test was carried out under neuroleptanalgesia (1 ml per 10 kg body weight of fentanyl (0.4 mg/ml) and droperidol (20 mg/ml)).
The test compounds were given intravenously after a control period of 30 minutes.

As to `Cc1cccc(C)c1NC(=O)C1(N(C)C)CCN([C@@H]2CCC[C@H]2O)CC1` (relative stereo) [compound 91], the minimal effective dose came to 0.08 mg/kg and the “Antiarrhythmic effects in dogs duration” value came to 220 min.

Take `Cc1cccc(C)c1NC(=O)C1(N(C)C)CCN(CC(O)CO)CC1` (stereo not shown) [compound 97]: the minimal effective dose was determined as 0.31 mg/kg and the “Antiarrhythmic effects in dogs duration” value worked out at 60 min.

In the case of `Cc1cccc(C)c1NC(=O)C1(N(C)C)CCN([C@H]2CCCC[C@@H]2NC(N)=O)CC1` (relative stereo) [compound 224, trans-1-[2-[(aminocarbonyl)-amino]cyclohexyl]-4-(dimethyJamino)-N-(2,6-dimethylphenyl)-4-piperidinecarboxamide], the minimal effective dose came to 0.04 mg/kg and the “Antiarrhythmic effects in dogs duration” value was found to be 130 min.

`CCNC1(C(=O)Nc2c(C)cccc2C)CCN(C(C)C)CC1` [compound 189, N-(2,6-dimethylphenyl)-4-(ethylamino)-l-(l-methylethyl)-4-piperidinecarboxamide]: the minimal effective dose worked out at 0.63 mg/kg and the “Antiarrhythmic effects in dogs duration” value was 175 min.

`Cc1cccc(C)c1NC(=O)C1(N(C)C)CCN([C@@H]2CCC[C@H]2N(CCO)Cc2ccccc2)CC1` (relative stereo) [compound 225, trans-4-(dimethyl-amino)-N-(2,6-dimethylphenyl)-1-[2-[(2-hydroxyethyl)(phenylmethyl)-amino]cyclopentyl]-4-piperidinecarboxamide]: the minimal effective dose turned out to be 0.08 mg/kg and the “Antiarrhythmic effects in dogs duration” value was 140 min.

For the compound `Cc1cccc(C)c1NC(=O)C1(N(C)C)CCN(CCO)CC1` [compound 167, 4-(dimethylamino)-N-(2,6-dimethylphenyl)-1-(2-hydroxyethyl)-4-piperidinecarboxamide], the minimal effective dose came out at 0.31 mg/kg and the “Antiarrhythmic effects in dogs duration” value was 220 min.

`Cc1cccc(C)c1NC(=O)C1(N(C)C)CCN([C@H]2CNCC[C@@H]2O)CC1` (relative stereo) [compound 211, trans-4-(dimethylamino)-N-(2,6-dimethylphenyl)-4'-hydroxy-[l,3'-bipiperidine]-4-carboxamide]: the minimal effective dose was 0.63 mg/kg and the “Antiarrhythmic effects in dogs duration” value was 160 min.

As to `CCN(CC)C1(C(=O)Nc2c(C)cccc2C)CCN(C(C)COC)CC1` (stereo not shown) [compound 140], the minimal effective dose worked out at 0.31 mg/kg and the “Antiarrhythmic effects in dogs duration” value came out at 220 min.

Turning to `Cc1cccc(C)c1NC(=O)C1(N(C)C)CCN([C@H]2CC[C@@H](O)C[C@@H]2O)CC1` [compound 202, (+)-[1-(1α,2β,4α)]-1-(2,4-dihydroxycyclohexyl)-4-(dimethylamino)-N-(2,6-dimethylphenyl)-4-piperidinecarboxamide], the minimal effective dose was found to be 0.31 mg/kg and the “Antiarrhythmic effects in dogs duration” value was 5 min.

Consider `Cc1cccc(C)c1NC(=O)C1(N(C)C)CCN([C@H]2CCC[C@@H]2N)CC1` (relative stereo) [compound 217, trans-l-(2-aminocyclopentyl)-4-(dimethylamino)-N-(2,6-dimethylphenyl)-4-piperidinecarboxamide], for which the minimal effective dose stood at 0.31 mg/kg and the “Antiarrhythmic effects in dogs duration” value amounted to 50 min.

Take `CCN(C)C1(C(=O)Nc2c(C)cccc2C)CCN(C(C)C)CC1` [compound 138]: the minimal effective dose is 1.25 mg/kg and the “Antiarrhythmic effects in dogs duration” value amounted to 100 min.
